Test results as given in US9809562B2, “NAT10 modulators for treating or preventing laminopathies, aging and cancer” (CAMBRIDGE ENTERPRISE LIMITED, priority 2014, dated 2017).
Read-outs that look alike come from different tables or passages of the source.

Tests used:
[1] = system: non-laminopathic Werner syndrome cells; assay: Misshapen nuclei in Werner syndrome cells; format: cell-based, human
Source text: (§1) FIG. 10: Remodelin rescues nuclear shape of aged MRC5 cells but not WS cells in a dose dependent manner. A) Misshapen nuclei observed by DAPI staining in MRC5 aged cells in culture, at population doubling 44 (PD44) were rescued by Remodelin. B) Quantification of misshapen nuclei after increasing concentrations of Remodelin (mean of three independent experiments±s.e.m.). C) DAPI staining of non-laminopathic Werner Syndrome cells (WS) showing no nuclear shape improvement upon Remodelin treatment. D) Cell Profiler quantification of misshapen nuclei (mean of three independent experiments±s.d. n>273). Scale bars: 50 μm.
(§2) U2OS and SaOS-2 osteosarcoma cells, HeLa cervical cancer cells, A431 melanoma cells, NCI-SNU5 gastric cancer cells, MRC-5 lung fibroblast cells and Werner syndrome patient-derived SV40 fibroblast cells were grown in Dulbecco's modified Eagle medium (DMEM, Sigma-Aldrich) supplemented with 10% fetal bovine serum (BioSera), 2 mM L-glutamine, 100 U per ml penicillin, 100 μg ml^−1 streptomycin. Normal skin primary fibroblasts GM03440 and Hutchinson Gilford Progeria Syndrome (HGPS) skin primary fibroblasts AG11498 and AG06297 were purchased from Coriell Cell Repositories and used between passage number 9-12 and 20-23 respectively. Cells were grown in DMEM supplemented as above. […] Cells were analysed 48 to 72 hours after transfection.

[2] = system: primary MRC5 fibroblasts aged in culture; assay: Misshapen nuclei in aged MRC5 cells; format: cell-based, human; conditions: population doubling 44
Source text: as §1, §2

[3] = Pharmacokinetics assay of Remodelin in mice; format: in vivo; conditions: ICR mice; for half-life: read-out: half-life (T½) (converted)
Experimental: FIG. 17: Pharmacokinetics assay of Remodelin in mice. A) The pharmacokinetics of Remodelin was evaluated in ICR mice following IV at 1 mg/kg and PO at 5 mg/kg dose level. […] B) Details of the results obtained in the curves shown in A).

[4] = system: HGPS cells (γH2AX, autophosphorylated ATM); assay: DNA damage markers in HGPS cells (western blotting, IF); format: cell-based, human; conditions: Remodelin 1 μM
Experimental: (§3) The following KAT and KDAC inhibitors were used in the nuclear shape rescue screen, incubating cells with the molecules for 16 hours: trichostatin A (1 μM), sodium butyrate (5 mM), tubacin (10 μM), SAHA (5 μM), curcumin (10 μM), garcinol (50 μM), anacardic acid (1 μM), MB-3 (5 μM), 4-(4-chlorophenyl)-2-(2-cyclopentylidenehydrazinyl)thiazole (Compound 2) (50 μM), 4-(4-chlorophenyl)-2-(2-cyclopentylidene-1-(prop-2-yn-1-yl)hydrazinyl)thiazole (Compound 3) (50 μM) and cyclopentylidene-[4-(4-cyanophenyl)thiazol-2-yl)hydrazine (Compound 1) (Remodelin) (10 to 50 μM). For HGPS cellular fitness assays, Remodelin was incubated at 1 μM for 1 to 10 days, renewing the medium every 3 days. For long-term senescence assay, cells were kept and passaged in medium containing 1 μM Remodelin or DMSO only for 12 population doublings. Senescence was assessed after 8 days of Remodelin treatment when cells were at Population Doubling 12, and then after several weeks of Remodelin treatment, when cells reached Population Doubling 24 using the Senescence β-Galactosidase Staining Kit #9860 from Cell Signaling. […]
Total cell extracts were prepared by scraping cells in SDS lysis buffer (4% SDS, 20% glycerol, and 120 mM Tris-HCl, pH 6.8), boiling for 5 minutes at 95° C., followed by 10 strokes through a 25-gauge needle. […] Detection and quantification was performed with an imager (Odyssey; LI-COR Biosciences). […]

[5] = system: farnesyltransferase activity (pre-Lamin A cleavage and maturation); assay: Lamin A processing by western blotting; format: cell-based, human
Experimental: as §3
Total cell extracts were prepared by scraping cells in SDS lysis buffer (4% SDS, 20% glycerol, and 120 mM Tris-HCl, pH 6.8), boiling for 5 minutes at 95° C., followed by 10 strokes through a 25-gauge needle. […] Detection and quantification was performed with an imager (Odyssey; LI-COR Biosciences).

Oral exposure (AUC0-∞) ([3]; PO 5 mg/kg): 259 ng·h/mL
clearance ([3]; mouse, plasma, IV 1 mg/kg): 139 mL/min/kg
half-life ([3]; mouse, plasma, IV 1 mg/kg): 54.9 min
Tmax ([3]; mouse, plasma, PO 5 mg/kg): 15 min
bioavailability ([3]; mouse, plasma, PO 5 mg/kg vs IV 1 mg/kg): 43.5%
half-life ([3]; mouse, plasma, PO 5 mg/kg): 109 min
Cmax ([3]; mouse, plasma, PO 5 mg/kg, read-out: maximum plasma concentration (Cmax)): 409 ng/mL
Compound: N#Cc1ccc(-c2csc(NN=C3CCCC3)n2)cc1 [Compound 1, 4-(4-Cyanophenyl)-2-(2-cyclopentylidenehydrazinyl)thiazole]
misshapen nuclei of Werner syndrome cells [1]: no detectable effect on misshapen nuclei
misshapen nuclei of aged MRC5 cells [2]: also had this effect on primary MRC5 fibroblasts aged in culture
steady-state DNA damage markers (γH2AX, autophosphorylated ATM) [4]: decreased steady-state levels of γH2AX and autophosphorylated ATM
pre-Lamin A processing [5]: did not block pre-Lamin A cleavage and maturation
